conditions: acidic group

SMILES	pKa
CN(C)Cc1ccccc1O	11
CCNC(=O)CS	8.14
NC(=S)c1ccc(Br)cc1	12.5
CC1(C)NC(C)(C)[N+](O)=C1c1ccccc1	2.06
CC/C=C/CC(=O)O	4.52
CCOC(=O)C1(CCC(=O)O)CCC(=O)NC1=O (configuration not stated)	4.35
CSc1ncnc2nc[nH]c12	8.74
O=C(O)c1ccc2cc3ccccc3cc2c1	4.18
O=[N+]([O-])c1cccc(-c2nnn[nH]2)c1	3.25
CCCCNC(=O)NS(=O)(=O)c1ccc(C)cc1	5.3
O=C([O-])[C@@H]1O[C@H](Oc2ccc3[nH+]c(O)ccc3c2)[C@@H](O)[C@H](O)[C@H]1O	3.75
Cc1[nH]c(-c2ccccc2S)[nH+]c1C	3.9
O=C(O)c1ccc(I)cc1	3.99
CC1=NCCc2c1[nH]c1ccccc21	14.9
COC(=O)c1ccccc1S	6.3
COc1ccc(O)c(Br)c1	8.62
Cc1cccc(C(=O)O)[nH+]1	0.9
CCCc1c(C)nn(-c2ccccc2)c1O	11.4
Cc1ccc(N[N+](=O)[O-])cc1	4.88
CC(=O)c1ccc(NN=C(C#N)C#N)cc1	5.85
[N-]=[N+]=Nc1ncnc2nc[nH]c12	7.6
COc1cccnc1C(O)O	12.9
C=Cc1ccc(O)cc1	9.91
CC(=O)C1CCCCC1=O (configuration not stated)	10.2
CS(=O)(=O)NC(N)=O	5.1
Cc1cc(O)n(-c2nc(O)c(C)c(C)[nH+]2)n1	5.5
Cc1coc(C)c1C(=O)O	4.55
CC(C)/C=C/C(=O)O	4.7

SMILES	pKa
O=[N+]([O-])c1ccccc1/C=N/O	10.1
C[N+](=O)[O-]	10.5
N#CC(C#N)=C(C(C#N)C#N)C(C#N)C#N	2.25
C=CCc1c(C)nn(C)c1O	10.5
Cc1cccc(S(N)(=O)=O)c1	9.51
COc1nc2ncncc2[nH]1	7.73
On1nnc2ccc(Cl)cc21	4.15
Cc1cccc(C)c1C(=O)O	3.23
O=C1CNC(=O)[C@H](Cc2ccc(O)cc2)N1	9.47
O=C(O)c1ccc[nH+]c1[O-]	5.28
Cc1cccc(NS(=O)(=O)c2ccc(N)cc2)[n+]1[O-]	5.9
O=C(O)c1ccc(C2CC2)cc1	4.42
CCC/C=C/C(=O)O	4.71
CC(C)(C)CCC(=O)O	4.83
Fc1ccc(S)cc1	6.35
CSc1ncnc2[nH]ncc12	9.65
O=S(=O)(NCc1ccccc1)c1ccc(Br)cc1	10.7
CC1(C)[C@H]2CC[C@@]1(C)[C@@H](O)[C@H]2C(=O)O	2.05
CCC1(C)OC(=O)NC1=O (configuration not stated)	6
CC(=O)N(O)c1ccccc1	8.36
Oc1cccc(O)c1	9.56
O=CC(c1ccccc1)c1ccccc1	9.39
c1cnc2nc[nH]c2c1	11.1
COCC(=O)NN	12.1
CCC(C)C[C@H]([NH3+])C(=O)O (some centres not stated)	3.25
CCOC(=O)Nc1nnc(-c2ccccc2)s1	8.2
C=CC[NH+](C)CCCNC(=O)/C=N/O	8.48

same assay, conditions: basic group

SMILES	pKa
OC[C@@H]1O[C@H](n2ccc3c2ncn2ccnc32)[C@@H](O)[C@H]1O	5.49
CCCCCN	10.7
C[Si](C)(C)OC1CN(C2CCCCC2)C1	9.02
CN(C1=NCCCO1)c1ccccc1	10.7
CN(C)Cc1ccccc1O	8.6
Brc1ccc(Nc2ccccc2)cc1	1.73
Cc1cc(=O)n(C)cn1	2.1
CN(C)c1ccc(C(=N)c2ccc(N(C)C)cc2)cc1	10.7
CN(CCCN)CCC[NH3+]	9.27
CN(C)c1ccc(/N=N/c2ccccc2)cc1	2.85
O=[N+]([O-])c1ccc([O-])c(CN2CCOCC2)c1	7.92
CN1C[C@@H](C(=O)[O-])C[C@@]2(O)c3cccc4[nH]cc(c34)C[C@H]12	9
c1c(CN2CCNCCNCC2)n[nH]c1CN1CCNCCNCC1	11.2
CN1[C@H]2CC[C@@H]1[C@H](C(=O)[O-])[C@H](O)C2	11.1
NC(=O)NOCCC(N)C(=O)[O-] (configuration not stated)	8.9
CN1CCCC(C(=O)[O-])C1 (configuration not stated)	9.7
O=C([O-])CC(c1ncc[nH]1)c1ncc[nH]1	6.9
c1c[nH]c(Cc2nc(Cc3c[nH]cn3)c[nH]2)n1	7.26
Nc1nnnn1-c1ccccc1	1.12
COc1ccc2c3c1O[C@H]1[C@@H](O)C=C[C@H]4[C@@H]([C@H]2O)N(C)CC[C@@]341	7.12
O=C([O-])C(CO)NCc1cc(Cl)ccc1[O-] (configuration not stated)	10.2
CCCCn1ccnc1	7.14
NCCCCBr	10
CC1=NCCc2c1[nH]c1ccccc21	8.99

SMILES	pKa
c1ccc(Cn2ccnc2)cc1	6.66
CN(C)c1ccc(N(C)C)cc1	6.37
NC12CCC(CC1)C2	10.2
Clc1cccnc1	2.77
CC(=O)c1ccc(NN=C(C#N)C#N)cc1	-0.77
CCOC(=O)c1cnc2c([N+](=O)[O-])cccc2c1[O-]	8.9
CC(C)(C)c1cc(N)cc(C(C)(C)C)c1	4.97
CCC/C(N)=C/C(=O)c1ccccc1	-1.12
C1CNCCSCC[NH2+]C1	3.23
c1ccc(CN(CC2=NCCN2)c2ccccc2)cc1	10.1
CNCCCN	10.7
C[C@@H]1[C@@H](N)[C@H]1[NH3+]	4.35
NC(=[NH2+])Nc1nccc(-c2csc(N)n2)n1	2.7
CC(C)C1CC(CC(=O)[O-])NC1C(=O)[O-] (configuration not stated)	10.4
CC(C)[C@H](N)C(=O)[O-]	9.66
CN(c1ccccc1)C(C)(C)C	7.5
OCCCCCc1ccncc1	6.04
C=Cc1ccncc1	5.62
COc1nc2ncncc2[nH]1	3.14
Cc1cnc([C@@H](O)[C@H](O)[C@H](O)CO)cn1	1.4
CCNCC[Se-]	10.9
CC(CC(c1ccccc1)c1ccccc1)N1CCCCC1 (configuration not stated)	8.8
C=CCN(CC=C)CC=C	8.31
CCC(=O)C(C[C@H](C)N1CCOCC1)(c1ccccc1)c1ccccc1	6.73

SMILES	pKa
C#CCCCN(C)C	8.88
Oc1ccc(Cl)cc1CN1CCCC1	11.7
c1ccc(-c2ccn[nH]2)nc1	4.46
CC1CC(=O)CC(=O)O1 (configuration not stated)	5.1
Cc1cnc2c(ccc3c(C)ccnc32)c1C	5.99
CC(=O)N(N)C1CCN(C)CC1	8.7
Cc1nc[nH]c1C	8.19
c1ccc2nc3ccc4ccccc4c3cc2c1	4.39
Cc1cc(-c2ccccc2)nn2cc(C[NH+]3CCOCC3)nc12	1.5
CCCCCCCCCCCCCCCCCCN(CC(C)O)CC(C)O (configuration not stated)	9.4
CCCCNCCCCCCNCCCC	11.3
CCNc1ccccc1C	4.92
CSc1ncnc2[nH]ncc12	1
[S-]c1nccc2ccccc12	10.8
CN(C)C(C)(C)C	10.5
CN(C)c1ncc(Br)s1	3.66
Cc1cc(-c2[nH]cc[nH+]2)nn1C	2
CCCNC1c2ccccc2C=Cc2ccccc21	8.9
C=CCN(CC=C)CCCN(CC=C)CC=C	8.8
O=[N+]([O-])c1cccc2cn[nH]c12	-0.83
O=CC(c1ccccc1)c1ccccc1	9.42
C[NH+](C)CCCNc1c([N+](=O)[O-])cnc2ccccc12	4.43
c1cnc2nc[nH]c2c1	3.95
CCNCCCC(=O)[O-]	11

Reference: the pKa sets of Baltruschat and Czodrowski (2020)
